Reference: patent US8722703B2, “Fused amino pyridines for the treatment of brain tumors” (Curis, Inc., priority 2009, dated 2014)
Where two headings read alike, the source gives them in different places.

Experiment: PK in mouse brain after i.v. and oral delivery, cassette study in HCT116 tumor-bearing mice
Format: in vivo
[1] = female, athymic nude (CD-1 nu/nu), mouse, iv, i.v. delivery (Cassette Study), read-out: HSP90 Compounds in Mouse Brain
[2] = female, athymic nude (CD-1 nu/nu), mouse, oral delivery (10 mg/g Cassette Study), read-out: HSP90 Compounds in Mouse Brain

CN(C)c1cc2c(cc1Sc1nc3c(N)nccc3n1CCNCC(C)(C)C)OCO2 [Compound 15, 2-(6-(dimethylamino)benzo[d][1,3]dioxol-5-ylthio)-1-(2-(neopentylamino)ethyl)-1H-imidazo[4,5-c]pyridin-4-amine]
concentration at 0.08333 hr (female, athymic nude (CD-1 nu/nu), mouse, iv, i.v. delivery (Cassette Study), Time 0.08333 hr, read-out: HSP90 Compounds in Mouse Brain): 3240 ng/g
concentration at 0.5 hr [1]: 1450 ng/g
concentration at 2 hr [1]: 773 ng/g
concentration at 6 hr [1]: 177 ng/g
concentration at 24 hr [1]: 27 ng/g
concentration at 48 hr [1]: 4.8 ng/g
concentration at 0.5 hr [2]: 61.2 ng/g
concentration at 2 hr [2]: 256 ng/g
concentration at 6 hr [2]: 218 ng/g
concentration at 24 hr [2]: 5.9 ng/g
concentration at 48 hr [2]: 0.7 ng/g
AUC i.v. in the brain (i.v.): 6761.3 ng·h/g
AUC p.o. in the brain (p.o.): 3293.9 ng·h/g
F (%) in the brain (p.o. vs i.v.): 24.4%
